Patent US20250269039A1, “THERAPEUTIC-OLIGONUCLEOTIDES ACTIVATED BY NUCLEASES” (priority 2020, published 2025)
In brackets after ≈: the same amount, converted by molar mass. Like-named read-outs stand apart in the source and are kept apart here.

How the values were obtained:
P. mirabilis ATCC 25933 = assay: Broth microdilution MIC and growth inhibition (control bacteria); type: cell-based, Proteus mirabilis; conditions: for MIC: TOUCAN as NA equivalent
Excerpt: Bacteria strains. S. aureus NCTC 12493 (MRSA), S. aureus ATCC 29213 (MSSA), S. aureus ATCC 43300 (MRSA), S. aureus ATCC 1707 (MRSA), S. aureus ATCC 1717 (MRSA), S. aureus ATCC 1747 (MRSA), S. aureus ATCC 1761 (MRSA), S. aureus ATCC 1766 (MRSA), S. aureus ATCC 1768 (MRSA), S. epidermidis ATCC 35984, E. coli ATCC 25922, K. pneumoniae ATCC 13883, P. mirabilis ATCC 25933, S. enterica ATCC 14028 and P. aeruginosa ATCC 10145 strains were used in this study. Bacteria were initially inoculated onto tryptone soy agar with 5% defibrinated sheep blood (Thermo Fisher Scientific, Inc., Waltham, MA, USA) and incubated at 37° C. for 24 hours. Then, single colonies of each strain were transferred to tryptone soy broth (Thermo Fisher Scientific) for the nuclease activity assay or antimicrobial susceptibility testing, respectively.
(§1) Antimicrobial susceptibility testing. Minimal inhibitory concentrations (MIC) of all nucleoside analogues and TOUCANs against each bacteria strain were determined using broth microdilution method. A single colony obtained from overnight culture on tryptone soy agar with 5% defibrinated sheep blood was inoculated in cation-adjusted Mueller Hinton Broth and adjusted to 10^6 CFU/mL. TOUCANs were prepared in PBS+/+ (treatment) and serial dilutions were made in 96-well polystyrene round bottom microwell plates with 50 μL final volume for each concentration. PBS+/+ was used as untreated control. Next, 50 μL bacteria solutions were added to each well to a final bacteria concentration of 5×10^5 CFU/mL. Plates were incubated at 37° C. in Cytation 1 Cell Imaging Multimode Reader. Growth curves were obtained by measuring optical densities at 600 nm every 10 minutes for 18 hours using Cytation 1 Cell Imaging Multimode Reader. In addition, visual inspection of the plates was carried out after 18 hours and photographs were taken. MICs were defined as the lowest drug concentration in the microwell at which bacterial growth was not visible at the end of the incubation period. Besides MIC determination, specificity of TOUCAN 7mGe was also shown with subcultures on chromogenic media. For this purpose, 5 μL of different concentrations of each strain were inoculated onto CHROM agar Orientation Media (Becton Dickinson) and the bacterial growth of each bacteria strain tested was observed by naked eye after incubation at 37° C. for 24 hours. Finally, photographs of the chromogenic media were taken.

S. aureus = assay: Growth inhibition curves / MICs in S. aureus cultures (strain not named or summary over strains); type: cell-based, Staphylococcus aureus; conditions: Staphylococcus aureus, read-out: MIC values over all S. aureus strains tested
Description: as §1

mU-mU-mU-mU-T-T-Fx [TOUCAN 7mFx] was tested, and the MIC (P. mirabilis ATCC 25933; 18 h) was >40 µg/mL and the “TOUCAN % Growth inhibition” value (P. mirabilis ATCC 25933; mean ± SD, n = 3) was 45.5 ± 0.4%.
Work on `O=c1[nH]c(=O)n([C@H]2C[C@H](O)[C@@H](CO)O2)cc1F` [Floxuridine, reference compound] yielded an MIC (P. mirabilis ATCC 25933; Proteus mirabilis, ATCC25933, 18 h, read-out: MIC) of 5 µg/mL and an MIC (S. aureus) of 0.005 to 0.32 µg/mL (≈ 0.0203 to 1.3 µM).
